# Measurements from patent US10183944B2 (Asana Biosciences, LLC, priority 2011, dated 2019).
# Target: Syk (356-635 amino acids) catalytic domain (Homo sapiens (Human), UniProt P43405)
# Test: Inhibition of enzymatic Syk kinase activity (radiometric)
# Assay type: biochemical
# Conditions: read-out: IC50 Syk
# Description: The objective of this assay was to examine by radiometric method the ability of compounds to inhibit Syk kinase enzyme. Syk is capable of phosphorylating substrates such as VAV, LAT, SLP-76, which in turn activate MAPK, PLCγ signaling pathways. […] This in vitro assay tests the ability of syk to phosphorylate a substrate peptide in the presence of ATP. By using a radio-labeled form of ATP, it is possible to measure the amount of phosphorylation of the substrate. The enzyme transfers a radio-labeled phosphate group from γ32 P labeled ATP to pG4T. Briefly the enzyme was incubated with substrate, radio-labeled & cold ATP and substrate in buffer with or without compounds. At the end of the reaction, the reaction mixture was transferred on to a Multiscreen filter plate and unreacted γ^32P ATP was washed off. The filter plate was dried and the radioactivity was measured on a scintillation counter to estimate the incorporated radioactivity on the substrate. The percent inhibition of activity of the enzyme was calculated by comparing counts in the presence and absence of compounds. […] 2.5 μL of 10% DMSO or compound in 10% DMSO was added to the wells in a 96 well V-bottom plate. Optimized concentration of in-house Syk enzyme (different batches of Syk (356-635) kinase domain) were used at optimized concentrations) ranging from 0.035 ng to 7.5 ng/reaction diluted in assay buffer was added to a total volume of 12.5 μL). Compound and protein were incubated for 30 minutes at room temperature on a plate shaker. Ten μL of a substrate mix containing 100 μM ATP (0.25 μL), γ-P^32-ATP (0.1 μL; 10 μCi/μL), pG4T (0.25 μL; 10 mg/mL) and 1× assay buffer (9.4 μL) was added to all the wells. Samples were incubated at 30° C. for 10 minutes after mixing. The reaction was stopped by the addition of 8N HCl (13 μL) containing 100 mM ATP. Thirty μL of sample was transferred to the center of a 2×2 cm^2 Whatman® P81 chromatography paper. After allowing the sample to dry for one minute, the assay squares were washed 3 times for 5 minutes each in ortho-phosphoric acid (0.5%) and once in acetone. Assay squares were dried for 15 minutes in a 30° C. oven and transferred to 96 well optiplate. Microscint-O® reagent (100 μL, Perkin Elmer) was added to each well, the plate was sealed with Topseal®-A microplates and incubated for 10 minutes at room temperature at very low speed on rocker and the plate was read in the Topcount® NXL instrument. The following calculations were made: Fold induction=radioactivity counts (uncorrected values) in positive control/substrate control.
row,SMILES,IC50 [nM]
1,"N#CC1CCN(c2nc(Nc3ccc(OCCN4CCNCC4)cc3)c3c(=O)[nH]ncc3n2)CC1 [Example 149, 1-(5-oxo-4-((4-(2-(piperazin-1-yl)ethoxy)phenyl)amino)-5,6-dihydropyrimido[4,5-d]pyridazin-2-yl)piperidine-4-carbonitrile]",> 100
2,"O=c1[nH]ncc2nc(N3CCCCCC3)nc(Nc3ccc(N4CCC(CCCO)CC4)cc3)c12 [Example 194, 2-(azepan-1-yl)-4-((4-(4-(3-hydroxypropyl)piperidin-1-yl)phenyl)amino)pyrimido[4,5-d]pyridazin-5(6H)-one]",> 100
3,"N#CCC1CCN(CCN2CCC(Nc3nc(N4CCCCCC4)nc4cn[nH]c(=O)c34)CC2)CC1 [Example 204, 2-(1-(2-(4-((2-(azepan-1-yl)-5-oxo-5,6-dihydropyrimido[4,5-d]pyridazin-4-yl)amino)piperidin-1-yl)ethyl)piperidin-4-yl)acetonitrile]",> 100
4,"CCn1nnc(-c2ccc(Nc3nc(N4CCCCCC4)nc4cn[nH]c(=O)c34)cc2)n1 [Example 225, 2-(azepan-1-yl)-4-((4-(2-ethyl-2H-tetrazol-5-yl)phenyl)amino)pyrimido[4,5-d]pyridazin-5(6H)-one]",> 100
5,"N#CCN1CCN(c2nc(Nc3ccc(OCCN4CCNCC4)cc3)c3c(=O)[nH]ncc3n2)CC1 [Example 230, 2-(4-(5-oxo-4-((4-(2-(piperazin-1-yl)ethoxy)phenyl)amino)-5,6-dihydropyrimido[4,5-d]pyridazin-2-yl)piperazin-1-yl)acetonitrile]",> 100
6,"N#CCC1CCN(c2nc(Nc3ccc(-c4nnn(CC(=O)O)n4)cc3)c3c(=O)[nH]ncc3n2)CC1 [Example 241, 2-(5-(4-((2-(4-(cyanomethyl)piperidin-1-yl)-5-oxo-5,6-dihydropyrimido[4,5-d]pyridazin-4-yl)amino)phenyl)-2H-tetrazol-2-yl)acetic acid]",> 100
7,"O=c1[nH]ncc2nc(N3CCCCCC3)nc(Nc3ccc(N4CCC5(CC4)CC5CO)cc3)c12 (centres unmarked) [Example 258, 2-(azepan-1-yl)-4-((4-(1-(hydroxymethyl)-6-azaspiro[2.5]octan-6-yl)phenyl)amino) pyrimido[4,5-d]pyridazin-5(6H)-one]",< 100
8,"COc1cc(Nc2nc(N3CCC(CC#N)CC3)nc3cn[nH]c(=O)c23)cc(OC)c1 [Example 300, 2-(1-(4-((3,5-dimethoxyphenyl)amino)-5-oxo-5,6-dihydropyrimido[4,5-d]pyridazin-2-yl)piperidin-4-yl)acetonitrile]",> 100
9,"N#CCC1CCN(c2nc(Nc3ccc(OC(F)(F)F)cc3)c3c(=O)[nH]ncc3n2)CC1 [Example 301, 2-(1-(5-oxo-4-((4-(trifluoromethoxy)phenyl)amino)-5,6-dihydropyrimido[4,5-d]pyridazin-2-yl)piperidin-4-yl) acetonitrile]",> 100
10,"O=c1[nH]ncc2nc(N3CCCCCC3)nc(Nc3cccc(CO)c3)c12 [Example 310, 2-(azepan-1-yl)-4-((3-(hydroxymethyl)phenyl)amino)pyrimido[4,5-d]pyridazin-5(6H)-one]",> 100
11,"N#CCC1CCN(c2nc(Nc3cccc(CO)c3)c3c(=O)[nH]ncc3n2)CC1 [Example 311, 2-(1-(4-((3-(hydroxymethyl)phenyl)amino)-5-oxo-5,6-dihydropyrimido[4,5-d]pyridazin-2-yl)piperidin-4-yl) acetonitrile]",> 100
12,"CC(C)(Oc1ccc(Nc2nc(N3CCC(CC#N)CC3)nc3cn[nH]c(=O)c23)cc1)C(=O)O [Example 317, 2-(4-((2-(4-(cyanomethyl)piperidin-1-yl)-5-oxo-5,6-dihydropyrimido[4,5-d]pyridazin-4-yl)amino)phenoxy)-2-methylpropanoic acid]",> 100
13,"COc1cc(Nc2nc(N3CCC(CC#N)CC3)nc3cn[nH]c(=O)c23)cc(OC)c1OC [Example 326, 2-(1-(5-oxo-4-((3,4,5-trimethoxyphenyl)amino)-5,6-dihydropyrimido[4,5-d]pyridazin-2-yl)piperidin-4-yl) acetonitrile]",> 100
14,"O=c1[nH]ncc2nc(N3CCCCCC3)nc(Nc3ccc4c(c3)OCO4)c12 [Example 327, 2-(azepan-1-yl)-4-(benzo[d][1,3]dioxol-5-ylamino)pyrimido[4,5-d]pyridazin-5(6H)-one]",> 100

# Continued, values first:
row,IC50 [nM],SMILES
1,> 100,"O=C(O)C1CC12CCN(c1ccc(Nc3nc(-c4ccncc4)nc4cn[nH]c(=O)c34)cc1)CC2 (centres unmarked) [Example 138, 6-(4-((5-oxo-2-(pyridin-4-yl)-5,6-dihydropyrimido[4,5-d]pyridazin-4-yl)amino)phenyl)-6-azaspiro[2.5]octane-1-carboxylic acid]"
2,> 100,"COc1cccc(-c2nc(Nc3ccc(N4CCC(CC#N)CC4)cc3)c3c(=O)[nH]ncc3n2)c1 [Example 163, 2-(1-(4-((2-(3-methoxyphenyl)-5-oxo-5,6-dihydropyrimido[4,5-d]pyridazin-4-yl)amino)phenyl)piperidin-4-yl)acetonitrile]"
3,> 100,"O=c1[nH]ncc2nc(N3CCOCC3)nc(Nc3ccc(OCCN4CCNCC4)cc3)c12 [Example 176, 2-morpholino-4-((4-(2-(piperazin-1-yl)ethoxy)phenyl)amino)pyrimido[4,5-d]pyridazin-5(6H)-one]"
4,> 100,"CC1CN(c2nc(Nc3ccc(OCCN4CCNCC4)cc3)c3c(=O)[nH]ncc3n2)CC(C)O1 (centres unmarked) [Example 177, 2-(2,6-dimethylmorpholino)-4-((4-(2-(piperazin-1-yl)ethoxy)phenyl)amino) pyrimido[4,5-d]pyridazin-5(6H)-one]"
5,> 100,"CCn1nnc(-c2ccc(Nc3nc(N4CCC(CC#N)CC4)nc4cn[nH]c(=O)c34)cc2)n1 [Example 226, 2-(1-(4-((4-(2-ethyl-2H-tetrazol-5-yl)phenyl)amino)-5-oxo-5,6-dihydropyrimido[4,5-d]pyridazin-2-yl)piperidin-4-yl)acetonitrile]"
6,< 10,"N#CCC1CCN(c2nc(Nc3ccc(N4CCN(CCN)CC4)cc3)c3c(=O)[nH]ncc3n2)CC1 [Example 257, 2-(1-(4-((4-(4-(2-aminoethyl)piperazin-1-yl)phenyl)amino)-5-oxo-5,6-dihydropyrimido[4,5-d]pyridazin-2-yl)piperidin-4-yl)acetonitrile]"
7,> 100,"O=c1[nH]ncc2nc(N3CCCCCC3)nc(Nc3ccc(N4CCC(F)(F)CC4)cc3)c12 [Example 279, 2-(azepan-1-yl)-4-((4-(4,4-difluoropiperidin-1-yl)phenyl)amino) pyrimido[4,5-d]pyridazin-5(6H)-one]"
8,< 100,"O=c1[nH]ncc2nc(N3CCCCCC3)nc(Nc3ccc(OCCCO)cc3)c12 [Example 296, 2-(azepan-1-yl)-4-((4-(3-hydroxypropoxy)phenyl)amino)pyrimido[4,5-d]pyridazin-5(6H)-one]"
9,> 100,"O=c1[nH]ncc2nc(N3CCCCCC3)nc(Nc3ccc(N4CCC(CCF)CC4)cc3)c12 [Example 298, 2-(azepan-1-yl)-4-((4-(4-(2-fluoroethyl)piperidin-1-yl)phenyl)amino) pyrimido[4,5-d]pyridazin-5-(6H)-one]"
10,> 100,"O=c1[nH]ncc2nc(N3CCCCCC3)nc(Nc3ccc(OC(F)(F)F)cc3)c12 [Example 303, 2-(azepan-1-yl)-4-((4-(trifluoromethoxy)phenyl)amino)pyrimido[4,5-d]pyridazin-5(6H)-one]"
11,> 100,"O=c1[nH]ncc2nc(N3CCCCCC3)nc(Nc3ccc(F)cc3)c12 [Example 313, 2-(azepan-1-yl)-4-((4-fluorophenyl)amino)pyrimido[4,5-d]pyridazin-5(6H)-one]"
12,> 100,"COc1ccc(Nc2nc(N3CCCCCC3)nc3cn[nH]c(=O)c23)cc1OC [Example 318, 2-(azepan-1-yl)-4-((3,4-dimethoxyphenyl)amino)pyrimido[4,5-d]pyridazin-5(6H)-one]"
13,> 100,"COc1ccc(Nc2nc(N3CCC(CC#N)CC3)nc3cn[nH]c(=O)c23)cc1OC [Example 319, 2-(1-(4-((3,4-dimethoxyphenyl)amino)-5-oxo-5,6-dihydropyrimido[4,5-d]pyridazin-2-yl)piperidin-4-yl)acetonitrile]"
14,> 100,"COc1cccc(Nc2nc(N3CCCCCC3)nc3cn[nH]c(=O)c23)c1 [Example 320, 2-(azepan-1-yl)-4-((3-methoxyphenyl)amino)pyrimido[4,5-d]pyridazin-5(6H)-one]"
15,> 100,"COc1cccc(Nc2nc(N3CCC(CC#N)CC3)nc3cn[nH]c(=O)c23)c1 [Example 321, 2-(1-(4-((3-methoxyphenyl)amino)-5-oxo-5,6-dihydropyrimido[4,5-d]pyridazin-2-yl)piperidin-4-yl)acetonitrile]"
